Here are results for one compound from PMC10439028, “SGLT5 is the renal transporter for 1,5-anhydroglucitol, a major player in two rare forms of neutropenia” (Cellular and Molecular Life Sciences: CMLS, 2023).

The test deals with T1, hSGLT5 Asn96Ile (Homo sapiens, UniProt A0PJK1, N96I).
T1 construct: pUB83-hSGLT5-iso2 as well as the various SGLT5 mutants obtained were used to transduce HEK293T cells; expressed in transfected cells; host or cells: HEK293T, lentiviral transduction (pUB83)
T1 sequence (A0PJK1 1-596 N96I): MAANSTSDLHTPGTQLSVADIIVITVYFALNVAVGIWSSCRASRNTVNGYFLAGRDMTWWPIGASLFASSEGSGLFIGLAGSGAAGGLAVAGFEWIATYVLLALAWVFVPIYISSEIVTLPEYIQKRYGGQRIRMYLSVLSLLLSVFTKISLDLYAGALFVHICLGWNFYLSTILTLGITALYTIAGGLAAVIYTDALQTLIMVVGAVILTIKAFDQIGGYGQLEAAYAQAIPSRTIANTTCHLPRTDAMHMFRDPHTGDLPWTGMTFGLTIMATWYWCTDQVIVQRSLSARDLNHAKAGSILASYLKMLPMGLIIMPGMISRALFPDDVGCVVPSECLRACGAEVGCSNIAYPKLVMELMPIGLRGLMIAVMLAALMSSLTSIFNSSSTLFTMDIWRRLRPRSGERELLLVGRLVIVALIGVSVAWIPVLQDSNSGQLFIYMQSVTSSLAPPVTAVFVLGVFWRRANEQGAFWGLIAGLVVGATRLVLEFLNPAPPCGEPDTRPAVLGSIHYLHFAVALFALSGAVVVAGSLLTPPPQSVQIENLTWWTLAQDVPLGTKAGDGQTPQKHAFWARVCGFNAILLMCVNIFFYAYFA
Briefly: 1,5-AG uptake in HEK293T cells overexpressing SGLT5 variant Asn96Ile. It counts as cell-based. As for the experimental part: For a typical transporter experiment we proceeded as follows. […] To minimize cell loss during the various washing steps in the radioactive uptake experiments, the wells where the cells were seeded were previously coated with poly- D-lysine, which improved their adhesion to the plastic surface of the wells. For this, each well of the 24-well plates was treated with 200 µl of a 0.01% poly-L-lysine solution for 10 min, washed 3 times with 1 ml of sterilized water and left to dry for 2 h. Only then could the 24-well plates be seeded with the appropriate cell lines and cultured overnight at 37 °C in 5% CO2.
On day two, the radioactive uptake assay could be performed. The cell culture media was removed by aspiration and cells were incubated for 20 min at 37 °C and 5% CO2 with a basal medium (10 mM HEPES, pH 7.4, 1 mM CaCl2, 1 mM MgCl2, 2 mM KCl) containing 140 mM choline chloride to deplete intracellular Na^2+ ions. […]
Once the uptake medium was added to the cells, the plates were incubated at 37 °C in 5% CO2 during the required time. […] In each experiment, the transport activities were calculated after subtracting a “blank” value, corresponding to the radioactivity in the appropriate control cells (HEK293T cells that were stably or transiently transfected with one of the parent plasmids pEF6/MycHisA, pEF6HisB, pUB82 or pUB83 with no inserted cDNA) that were analyzed in parallel. […]

On to `OC[C@H]1OC[C@H](O)[C@@H](O)[C@@H]1O` [1,5-AG, 1,5-anhydroglucitol], for which the Vmax is 19.5 ± 3 pmol/min/10^5cells and the “reduction of transport efficiency compared to SGLT5” value is recorded as “sixfold”.
